Reference: patent US11827917B1, “Methods for the conversion of fermentable sugars to ethanol” (Colorado State University Research Foundation, priority 2020, dated 2023)
Marks after values point to notes of the source that are not given here.

Columns and labels:
Assay type in all cases: cell-based, Saccharomyces cerevisiae
S. cerevisiae ATCC 26603 = assay: Serum-bottle cultivation in YPD, different yeast strains; details: 0.2%
Procedure: (§1) Analytical methods: Cell growth was evaluated by monitoring OD600 and cell dry mass concentration. For dry mass measurements, 1.0 mL of culture was transferred to a pre-dried and pre-weighed 2-mL centrifuge tube. The tubes were centrifuged for 10 min at 14000 rpm using a microcentrifuge, and then the cell pellets were dried in an oven for 3 days at 65° C. The cell dry mass was determined by subtracting the initial tube mass from the dried mass of tube with cells. The concentrations of glucose, ethanol, and glycerol were measured via HPLC (Shimadzu LC20A series) outfitted with a refractive index detector and using an Aminex HPX-87H (300×7.8 mm) organic acid column and Cation H+ guard cartridge (Bio Rad Laboratories, Hercules, CA). The column was maintained at 65° C. and the mobile phase was 5 mM sulfuric acid with a flow rate of 0.6 mL/min. Standard compound solutions were used to calibrate the HPLC. Each sample was analyzed three times by HPLC.
(§2) Procedure: Seven yeast strains (S. cerevisiae ATCC 26603, S. cerevisiae JAY 238, S. cerevisiae JAY 240, S. cerevisiae JAY 241, S. paradoxus JAY 1502, S. kudriavzezii JAY 1503, and S. mikatae JAY 1504) were pre-cultured in 30 mL of YPD medium in 100 mL serum bottle overnight in a shaker at 30° C. and 200 rpm. The precultured yeast cells of each strains were collected and washed twice. Finally, the cell pellet was resuspended in about 10 mL 0.8% (w/v) NaCl and the OD600 measured. TyrOH, PheOH, and TrpOH were added to 30 mL of YPD medium in 100-mL serum bottles at 0.2% (w/v) respectively. The same amount of DMSO was added in YPD medium and served as control to the TrpOH and TyrOH treatments. The prepared yeast cells were added to obtain the initial cell concentration at OD600=0.2. The serum bottles were sealed and cultured in a shaker at 30° C. and 200 rpm for 24 h. There were three biological replicates for each treatment.

S. cerevisiae JAY 240 = assay: as above; details: 0.2%
Procedure: as §1, §2

S. cerevisiae JAY 241 = assay: as above; details: 0.2%
Procedure: as §1, §2

S. cerevisiae JAY 238 = assay: as above; details: 0.2%
Procedure: as §1, §2

S. cerevisiae JAY 270 = assay: Serum-bottle cultivation in YPD: biomass, glycerol, ethanol yields
Procedure: Procedure: Cultivations in serum bottles were used to determine the effect of the best-performing screened chemicals on the ethanol yield. S. cerevisiae JAY 270 was pre-cultured in 100 mL of YPD medium in 200-mL serum bottles overnight in a shaker at 30° C. and 200 rpm. The precultured yeast cells were collected and washed twice as described above. The cell pellet was resuspended in about 10 mL of 0.8% (w/v) NaCl and the cell concentration was estimated as OD600. TyrOH, PheOH, and TrpOH were added to 30 mL of YPD medium in 100-mL serum bottles at 0.05% and 0.2% respectively. The same amount of DMSO was added to YPD medium to serve as the control for TrpOH and TyrOH treatments. The bottles were inoculated with the prepared yeast cells to obtain an initial cell concentration of OD600=0.2. The serum bottles were sealed and cultured in a shaker at 30° C. and 200 rpm for 24 h. Each condition had three biological replicates.
as §1

[1] = S. cerevisiae ATCC 26603, YPD (Table 9B)
[2] = S. cerevisiae JAY 240, YPD (Table 9B)
[3] = S. cerevisiae JAY 241, YPD (Table 9B)
[4] = S. cerevisiae JAY 238, YPD (Table 9B)
[5] = 0.05% (w/v), YPD, serum bottles

OCCc1c[nH]c2ccccc12 [TrpOH, tryptophol]
Biomass Yield (S. cerevisiae ATCC 26603; S. cerevisiae ATCC 26603): 0.059 ± 0.001 g/g
Biomass yield % change vs. control (S. cerevisiae ATCC 26603; S. cerevisiae ATCC 26603): −17* %
EtOH yield (S. cerevisiae ATCC 26603; S. cerevisiae ATCC 26603): 0.495 ± 0.008 g/g
Glycerol yield (S. cerevisiae ATCC 26603; S. cerevisiae ATCC 26603): 0.054 ± 0.005 g/g
Glycerol yield % change vs. control (S. cerevisiae ATCC 26603; S. cerevisiae ATCC 26603): −25* %
DCW (S. cerevisiae ATCC 26603; S. cerevisiae ATCC 26603, YPD): 1.13 mg
DCW Δ vs. ref (S. cerevisiae ATCC 26603; S. cerevisiae ATCC 26603, YPD): 64.2%
OD600 (S. cerevisiae ATCC 26603; S. cerevisiae ATCC 26603, YPD): 0.77
OD600 Δ vs. ref (S. cerevisiae ATCC 26603; S. cerevisiae ATCC 26603, YPD): 54.8%
Biomass Yield (S. cerevisiae ATCC 26603; [1]): 0.059 + 0.001 g/g
Biomass yield Δ vs. ref (S. cerevisiae ATCC 26603; [1]): −16.7%
Ethanol yield (S. cerevisiae ATCC 26603; [1]): 0.495 ± 0.008 g/g
Ethanol yield Δ vs. ref (S. cerevisiae ATCC 26603; [1]): 14.2%
Glycerol yield (S. cerevisiae ATCC 26603; [1]): 0.054 ± 0.005 g/g
Glycerol yield Δ vs. ref (S. cerevisiae ATCC 26603; [1]): −24.74%
Biomass Yield (S. cerevisiae JAY 240; S. cerevisiae JAY 240): 0.055 ± 0.006 g/g
Biomass yield % change vs. control (S. cerevisiae JAY 240; S. cerevisiae JAY 240): −24* %
EtOH yield (S. cerevisiae JAY 240; S. cerevisiae JAY 240): 0.464 ± 0.053 g/g
Glycerol yield (S. cerevisiae JAY 240; S. cerevisiae JAY 240): 0.035 ± 0.000 g/g
Glycerol yield % change vs. control (S. cerevisiae JAY 240; S. cerevisiae JAY 240): −12* %
DCW (S. cerevisiae JAY 240; S. cerevisiae JAY 240, YPD): 1.55 mg
DCW Δ vs. ref (S. cerevisiae JAY 240; S. cerevisiae JAY 240, YPD): 50.8%
OD600 (S. cerevisiae JAY 240; S. cerevisiae JAY 240, YPD): 1.12
OD600 Δ vs. ref (S. cerevisiae JAY 240; S. cerevisiae JAY 240, YPD): 45.0%
Biomass Yield (S. cerevisiae JAY 240; [2]): 0.055 + 0.006 g/g
Biomass yield Δ vs. ref (S. cerevisiae JAY 240; [2]): −23.5%
Ethanol yield (S. cerevisiae JAY 240; [2]): 0.464 ± 0.053 g/g
Ethanol yield Δ vs. ref (S. cerevisiae JAY 240; [2]): 14.5%
Glycerol yield (S. cerevisiae JAY 240; [2]): 0.035 ± 0.000 g/g
Glycerol yield Δ vs. ref (S. cerevisiae JAY 240; [2]): −11.63%
Biomass Yield (S. cerevisiae JAY 241; S. cerevisiae JAY 241): 0.063 ± 0.004 g/g
Biomass yield % change vs. control (S. cerevisiae JAY 241; S. cerevisiae JAY 241): +8.6%
EtOH yield (S. cerevisiae JAY 241; S. cerevisiae JAY 241): 0.435 ± 0.035 g/g
Glycerol yield (S. cerevisiae JAY 241; S. cerevisiae JAY 241): 0.041 ± 0.004 g/g
Glycerol yield % change vs. control (S. cerevisiae JAY 241; S. cerevisiae JAY 241): −26* %
DCW Δ vs. ref (S. cerevisiae JAY 241; S. cerevisiae JAY 241, YPD): 58.5%
OD600 (S. cerevisiae JAY 241; S. cerevisiae JAY 241, YPD): 1.00
OD600 Δ vs. ref (S. cerevisiae JAY 241; S. cerevisiae JAY 241, YPD): 50.1%
Biomass Yield (S. cerevisiae JAY 241; [3]): 0.063 + 0.004 g/g
Biomass yield Δ vs. ref (S. cerevisiae JAY 241; [3]): 8.6%
Ethanol yield (S. cerevisiae JAY 241; [3]): 0.435 ± 0.035 g/g
Ethanol yield Δ vs. ref (S. cerevisiae JAY 241; [3]): 13.8%
Glycerol yield (S. cerevisiae JAY 241; [3]): 0.041 ± 0.004 g/g
Glycerol yield Δ vs. ref (S. cerevisiae JAY 241; [3]): −25.72%
Biomass Yield (S. cerevisiae JAY 238; S. cerevisiae JAY 238): 0.060 ± 0.000 g/g
Biomass yield % change vs. control (S. cerevisiae JAY 238; S. cerevisiae JAY 238): −12* %
EtOH yield (S. cerevisiae JAY 238; S. cerevisiae JAY 238): 0.482 ± 0.017 g/g
Glycerol yield (S. cerevisiae JAY 238; S. cerevisiae JAY 238): 0.023 ± 0.002 g/g
Glycerol yield % change vs. control (S. cerevisiae JAY 238; S. cerevisiae JAY 238): −49* %
Glycerol yield decrease from control (S. cerevisiae JAY 238; S. cerevisiae JAY 238): 42%
DCW (S. cerevisiae JAY 238; S. cerevisiae JAY 238, YPD): 1.30 mg
DCW Δ vs. ref (S. cerevisiae JAY 238; S. cerevisiae JAY 238, YPD): 46.4%
OD600 (S. cerevisiae JAY 238; S. cerevisiae JAY 238, YPD): 0.39
OD600 Δ vs. ref (S. cerevisiae JAY 238; S. cerevisiae JAY 238, YPD): 16.7%
Biomass Yield (S. cerevisiae JAY 238; [4]): 0.060 + 0.000 g/g
Biomass yield Δ vs. ref (S. cerevisiae JAY 238; [4]): −11.8%
Ethanol yield (S. cerevisiae JAY 238; [4]): 0.482 ± 0.017 g/g
Ethanol yield Δ vs. ref (S. cerevisiae JAY 238; [4]): 14.7%
Glycerol yield (S. cerevisiae JAY 238; [4]): 0.020 ± 0.002 g/g
Glycerol yield Δ vs. ref (S. cerevisiae JAY 238; [4]): −48.90%
Biomass Yield (S. cerevisiae JAY 270; [5]): 0.078 + 0.001 g/g
Biomass yield % change vs. control (S. cerevisiae JAY 270; [5]): −22* %
EtOH yield (S. cerevisiae JAY 270; [5]): 0.41 ± 0.01 g/g
EtOH yield % change vs. control (S. cerevisiae JAY 270; [5]): 7.9* %
Glycerol yield (S. cerevisiae JAY 270; [5]): 0.027 ± 0.001 g/g
Glycerol yield % change vs. control (S. cerevisiae JAY 270; [5]): −20* %
Biomass yield vs. reference (S. cerevisiae JAY 270; 0.05%, YPD, serum bottles): −22.0%
Ethanol yield (S. cerevisiae JAY 270; 0.05%, YPD, serum bottles): 0.41 ± 0.01 g/g
Ethanol yield vs. reference (S. cerevisiae JAY 270; 0.05%, YPD, serum bottles): 7.9%
Glycerol yield (S. cerevisiae JAY 270; 0.05%, YPD, serum bottles): 0.027 ± 0.001 g/g
Glycerol yield vs. reference (S. cerevisiae JAY 270; 0.05%, YPD, serum bottles): −19.6%
OD600 (S. cerevisiae JAY 270; 0.05%, YPD, serum bottles): 3.01
Effect on yeast cell growth (S. cerevisiae JAY 270; 0.2%): reduced yeast cell growth
Biomass Yield (S. cerevisiae JAY 270; 0.2% (w/v), YPD, serum bottles): 0.042 + 0.006 g/g
Biomass yield % change vs. control (S. cerevisiae JAY 270; 0.2% (w/v), YPD, serum bottles): −58* %
EtOH yield (S. cerevisiae JAY 270; 0.2% (w/v), YPD, serum bottles): 0.41 ± 0.01 g/g
EtOH yield % change vs. control (S. cerevisiae JAY 270; 0.2% (w/v), YPD, serum bottles): 10* %
Glycerol yield (S. cerevisiae JAY 270; 0.2% (w/v), YPD, serum bottles): 0.027 ± 0.009 g/g
Glycerol yield % change vs. control (S. cerevisiae JAY 270; 0.2% (w/v), YPD, serum bottles): −22* %
Biomass yield vs. reference (S. cerevisiae JAY 270; 0.2%, YPD, serum bottles): −58.2%
Effect on ethanol yield (S. cerevisiae JAY 270; 0.2%, YPD, serum bottles): increased the ethanol yield significantly
Ethanol yield (S. cerevisiae JAY 270; 0.2%, YPD, serum bottles): 0.41 ± 0.01 g/g
Ethanol yield vs. reference (S. cerevisiae JAY 270; 0.2%, YPD, serum bottles): 10.3%
Glycerol yield (S. cerevisiae JAY 270; 0.2%, YPD, serum bottles): 0.027 ± 0.009 g/g
Glycerol yield vs. reference (S. cerevisiae JAY 270; 0.2%, YPD, serum bottles): −21.9%
OD600 (S. cerevisiae JAY 270; 0.2%, YPD, serum bottles): 1.52
